In US20050008687A1, “Metal-porphyrin-complex-embedded liposomes, production process thereof, and medicines making use of the same” (Makoto Yuasa, priority 2003, published 2005):
Read-outs that look alike come from different tables or passages of the source. One block for each molecule: values may come before it.

What was measured:
[1] = test system: mouse lung cancer cells [Lewis Lung Carcinoma (LLC)]; experiment: Anticancer characteristic test: cytotoxicity test (apoptosis test) by the Alamar Blue technique; assay type: cell-based; settings: FIG. 3
Method: Anticancer characteristics of a Pr-embedded liposome according to the present invention were examined by a cytotoxicity test (apoptosis test) making use of the Alamar Blue technique.
Employed were the FeT2 MPyP+4SAS-embedded DMPC liposome system (Invention Product 4, FeT2 MPyP concentrations: 0, 12.5, 25, 50, 100 μM) as a test sample and its corresponding cationic metalloporphyrin complex (FeT2 MPyP) and ion complex system (FeT2 MPyP+4SAS) as reference samples. As cells, on the other hand, mouse lung cancer cells [Lewis Lung Carcinoma (LLC), Riken Gene Bank] were used.
In the test, the mouse lung cancer cells were cultured in DMEM medium with 10% FBS added therein. Subsequent to determination of the cell count and adjustment of the cell concentration, the resulting cell suspension was added to the individual wells of a 96-well plate (100 μL/well, cell count: 1×10^4 cells/well), followed by incubation for 24 hours in a carbon dioxide incubator (CO2:5%). After the medium was removed from the plate, sample solutions of the respective concentrations (100 μL/well, sample concentrations: 0 to 100 μM), said sample solutions having had been prepared in advance, were added, followed by further incubation for 24 hours in the CO2 incubator.
An Alamar Blue solution, which had been sterilized by filtration, was added at 10 μL/well, followed by incubation for 5 hours. Subsequently, absorbance measurements (measurement wavelength: 570 nm, and reference wavelength: 600 nm) were conducted by using a microplate reader.
Anticancer characteristics of Pr-embedded liposomes according to the present invention were examined by a cytotoxicity test (apoptosis test) making use of the Alamar Blue technique as in Example 15.
As test samples, various Pr-embedded liposomes were used (metalloporphyrin complex concentrations: 0, 12.5, 25, 50, 100 μM). As reference samples, on the other hand, the components of the Pr-embedded liposomes, that is, the metalloporphyrin complexes (concentrations: 0, 12.5, 25, 50, 100 μM) and liposomes (concentrations: 2500, 5000, 10000, 20000 μM) were employed (the concentrations of both of the components were set corresponding to the concentrations of the Pr-embedded liposomes).
Provided as comparative samples were cisplatin (CDDP; concentrations: 0, 10, 20, 40, 80 μM) and mitomycin C (MMC; concentrations: 0, 7.5, 15, 30, 60 μM), which are anticancer agents employed at present. A test was conducted as in Example 15, and the following results were obtained.
Anticancer characteristics of pH-sensitive, Pr-embedded liposomes were examined by a cytotoxicity test (apoptosis test) making use of the Alamar Blue technique as in Example 15. […]

[2] = literature value reported by Ohse, Kawakami et al.; Table 7; cited from earlier work
[3] = literature value reported by Fridovich et al.; Table 6; cited from earlier work
[4] = SOD activity (O2-. scavenging) by the cytochrome c method; assay type: biochemical; settings: Table 8
Method: The SOD activity (in other words, O2^−. scavenging activity) of each Pr-embedded liposome was evaluated by the cytochrome c method proposed by Mccord and Fridovich or Butler et al. [(1) J. M. Mccord and I. Fridovich, J. Biol. Chem., 244, 6049 (1969) and (2) J. Butler, W. H. Kopenol, E. Margoliash, J. Biol. Chem., 257, 10747 (1982)]. Specifically, the evaluation was conducted as will be described hereinafter. Solutions (Solutions A) of each Pr-embedded liposome were prepared at five or more concentration levels of from 0 to 1,000 μM in terms of the concentration of the metalloporphyrin. […] With the resultant mixture, a 7 μg/mL aqueous catalase solution (0.1 mL) and a 25 U/mL aqueous xanthine oxidase (XOD) solution (0.3 mL) were promptly mixed, and UV-vis was measured with time at 550 nm (absorption peak based on the formation of ferrocytochome c)(the final concentrations of the respective components in the test solution were as follows: the metal porphyrin complex, 0 to 100 SM; xanthine, 0.05 mM; XOD, 2.5U/mL; cytochrome c, 10 μM; catalase, 0.23 μg/mL). […] Finally, the concentration (IC50) of each metalloporphyrin complex at IC=50% was determined from the concentration of metalloporphyrin-versus-IC” relationship, and the IC50 was used as an index of the SOSD-activating effect of the metalloporphyrin complex (smaller IC50 indicates higher SOD activity). […]

[5] = SOD activity (O2-. scavenging) by the stopped-flow method; assay type: biochemical; settings: Table 8
Method: The SOD activity (in other words, O2^−. scavenging activity) of each Pr-embedded liposome was evaluated by the stopped-flow method proposed by Riley et al. [D. P. Riley, W. L. Rivers, and R. H. Weiss, Anal. Biochem., 196, 344 (1991)]. Specifically, the evaluation was conducted as will be described hereinafter. At 36° C., a solution of potassium superoxide as an O2^−. production source in dimethylsulfoxide and one of 60 mM HEPES/HEPESNa buffered solutions (pH 8.1), which contained one of the Pr-embedded liposomes at various concentrations, were promptly mixed, and the decay in absorbance at 245 nm due to O2^−. (the decay curve of O2^−. scavenging reaction) was measured with time. From the decay curve, a “ln (absorbance)-versus-time” relationship was determined, and further, an apparent rate constant was calculated from the slope of the relationship. From the slope of the “concentration of metalloporphyrin complex-versus-apparent rate constant” relationship, the rate constant (Kcat) of the O2^−. scavenging reaction was finally determined. As a reference, ion complexes (MnT4 MPyP+1SAS and MnT4 MPyP+4SAS) were also evaluated likewise in SOD activity.
Various metalloporphyrin complexes, which represent Pr-embedded liposomes, were compared in SOD activity. […] Incidentally, the samples were prepared and measured as in Examples 19 and 20.

SMILES: [NH2][Pt]([NH2])([Cl])[Cl] [CDDP, cisplatin, reference compound]
- viability of LLC versus added concentration [1]: dropped as the added concentration increased

SMILES: C[n+]1ccccc1-c1c2nc(c(-c3cccc[n+]3C)c3ccc([n-]3)c(-c3cccc[n+]3C)c3nc(c(-c4cccc[n+]4C)c4ccc1[n-]4)C=C3)C=C2.[Fe+2] [FeT2 MPyP, iron[5,10,15,20-tetrakis(2-methylpyridyl)porphyrin]]
- viability of LLC versus added concentration [1]: dropped as the added concentration increased
- viability of LLC compared with CDDP and MMC ([1]; FeT2 MPyP concentrations of 25 μM and higher): lower than those in the cases of CDDP and MMC

SMILES: CO[C@@]12[C@H](COC(N)=O)C3=C(C(=O)C(C)=C(N)C3=O)N1C[C@@H]1N[C@@H]12 [MMC, mitomycin C, reference compound]
- viability of LLC versus added concentration [1]: dropped as the added concentration increased

- IC50 [4]: 0.74 µM
SMILES: C[n+]1ccc(-c2c3nc(c(-c4cc[n+](C)cc4)c4ccc([n-]4)c(-c4cc[n+](C)cc4)c4nc(c(-c5cc[n+](C)cc5)c5ccc2[n-]5)C=C4)C=C3)cc1.[Mn+2] [MnT4MPyP, manganese[5,10,15,20-tetrakis(4-methylpyridyl)porphyrin]]
- Kcat [2]: 2.2e+07 M⁻¹ s⁻¹
- IC50 [3]: 0.7 µM
- Kcat [5]: 2.2e+07 M⁻¹ s⁻¹
